Measured values reported in ChEMBL document CHEMBL4765457, “Targeting dual tolerant regions of binding pocket: Discovery of novel morpholine-substituted diarylpyrimidines as potent HIV-1 NNRTIs with significantly improved water solubility” (Eur J Med Chem, 2020).
≈ marks a conversion by molar mass, not a printed value.

What was measured:
[1] = tested on: Human immunodeficiency virus 1; experiment: Antiviral activity against HIV1 3B infected in human MT4 cells assessed as virus-induced cytopathic effect incubated for 5 days by MTT assay; type: functional, organism-based; conditions: Human immunodeficiency virus 1, 3B, MT4, 120 h
[2] = tested on: Human immunodeficiency virus 1; experiment: Antiviral activity against HIV1 RES056 infected in human MT4 cells assessed as inhibition of virus-induced cytopathic effect incubated for 5 days by MTT assay; type: functional, organism-based; conditions: Human immunodeficiency virus 1, RES056, MT4, 120 h
[3] = Cytotoxicity against human MT4 cells assessed as reduction in cell viability incubated for 5 days by MTT assay; type: cell-based; conditions: time 5 day
[4] = Selectivity index, ratio of CC50 for human MT4 cells to EC50 for antiviral activity against HIV1 3B infected in human MT4 cells; type: toxicity, cell-based; conditions: read-out: Ratio CC50/EC50
[5] = Selectivity index, ratio of CC50 for human MT4 cells to EC50 for antiviral activity against HIV1 RES056 infected in human MT4 cells; type: toxicity, cell-based; conditions: read-out: Ratio CC50/EC50
[6] = tested on: Human immunodeficiency virus 1; experiment: Antiviral activity against HIV1 harboring RT L100I mutant infected in human MT4 cells assessed as inhibition of virus-induced cytopathic effect incubated for 5 days by MTT assay; type: functional, organism-based; conditions: Human immunodeficiency virus 1, MT4, 120 h
[7] = tested on: Human immunodeficiency virus 1; experiment: Antiviral activity against HIV1 harboring RT K103N mutant infected in human MT4 cells assessed as inhibition of virus-induced cytopathic effect incubated for 5 days by MTT assay; type: functional, organism-based; conditions: Human immunodeficiency virus 1, MT4, 120 h
[8] = tested on: Human immunodeficiency virus 1; experiment: Antiviral activity against HIV1 harboring RT Y181C mutant infected in human MT4 cells assessed as inhibition of virus-induced cytopathic effect incubated for 5 days by MTT assay; type: functional, organism-based; conditions: Human immunodeficiency virus 1, MT4, 120 h
[9] = tested on: Human immunodeficiency virus 1; experiment: Antiviral activity against HIV1 harboring RT Y188L mutant infected in human MT4 cells assessed as inhibition of virus-induced cytopathic effect incubated for 5 days by MTT assay; type: functional, organism-based; conditions: Human immunodeficiency virus 1, MT4, 120 h
[10] = tested on: Human immunodeficiency virus 1; experiment: Antiviral activity against HIV1 harboring RT E138K mutant infected in human MT4 cells assessed as inhibition of virus-induced cytopathic effect incubated for 5 days by MTT assay; type: functional, organism-based; conditions: Human immunodeficiency virus 1, MT4, 120 h
[11] = tested on: Human immunodeficiency virus 1; experiment: Antiviral activity against HIV1 harboring RT F227L/V106Amutant infected in human MT4 cells assessed as inhibition of virus-induced cytopathic effect incubated for 5 days by MTT assay; type: functional, organism-based; conditions: Human immunodeficiency virus 1, MT4, 120 h
[12] = tested on: Human immunodeficiency virus 1; experiment: Potency index, ratio of nevirapine EC50 to test compound EC50 for antiviral activity against HIV1 harboring K103N mutant infected in human MT4 cells; type: functional
[13] = tested on: Human immunodeficiency virus 1; experiment: Potency index, ratio of lamivudine EC50 to test compound EC50 for antiviral activity against HIV1 harboring K103N mutant infected in human MT4 cells; type: functional
[14] = Resistance index, ratio of EC50 for antiviral activity against HIV1 expressing RT L100I mutant infected in human MT4 cells to EC50 for antiviral activity against HIV1 3B infected in human MT4 cells; type: functional
[15] = Resistance index, ratio of EC50 for antiviral activity against HIV1 expressing RT K103N mutant infected in human MT4 cells to EC50 for antiviral activity against HIV1 3B infected in human MT4 cells; type: functional
[16] = Resistance index, ratio of EC50 for antiviral activity against HIV1 expressing RT Y181C mutant infected in human MT4 cells to EC50 for antiviral activity against HIV1 3B infected in human MT4 cells; type: functional
[17] = Resistance index, ratio of EC50 for antiviral activity against HIV1 expressing RT Y188L mutant infected in human MT4 cells to EC50 for antiviral activity against HIV1 3B infected in human MT4 cells; type: functional
[18] = Resistance index, ratio of EC50 for antiviral activity against HIV1 expressing RT E138K mutant infected in human MT4 cells to EC50 for antiviral activity against HIV1 3B infected in human MT4 cells; type: functional
[19] = Resistance index, ratio of EC50 for antiviral activity against HIV1 expressing RT F227L/V106A mutant infected in human MT4 cells to EC50 for antiviral activity against HIV1 3B infected in human MT4 cells; type: functional
[20] = Inhibition of HIV1 reverse transcriptase assessed as reduction in biotin-dUTP incorporation into template preincubated for 1 hr followed by template/primer and dNTP addition and measured after 1 hr by ELISA; set-up: species or system Human immunodeficiency virus 1
[21] = Solubility of compound in water at pH 7.4; type: physicochemical
[22] = Solubility of compound in water at pH 7; type: physicochemical
[23] = Solubility of compound in water at pH 2; type: physicochemical
[24] = tested on: Human immunodeficiency virus 1; experiment: Potency index, ratio of lamivudine EC50 to test compound EC50 for antiviral activity against HIV1 3B infected in human MT4 cells; type: functional
[25] = tested on: Human immunodeficiency virus 1; experiment: Potency index, ratio of zidovudine EC50 to test compound EC50 for antiviral activity against HIV1 3B infected in human MT4 cells; type: functional

Row | Structure (SMILES) | EC50 [1] | EC50 [2] | CC50 at 120 h [3] | selectivity ratio [4] | selectivity ratio [5] | EC50 [6] | EC50 [7] | EC50 [8] | EC50 [9] | EC50 [10] | EC50 [11] | Ratio EC50 [14] | Ratio EC50 [15] | Ratio EC50 [16] | Ratio EC50 [17] | Ratio EC50 [18] | Ratio EC50 [19] | IC50 [20] | solubility [21] | solubility [22] | further results
1 | Cc1cc(C#N)cc(C)c1Oc1nc(NC2CCN(CCN3CCOCC3)CC2)nc2cc(F)ccc12 | 241 nM | > 16900 nM | 16900 nM | 70 | < 1 | 1240 nM | 522 nM | 1350 nM | 2400 nM | 963 nM | 2920 nM | 5.1 | 2.2 | 5.6 | 10 | 4 | 12.1 | – | – | – | Ratio EC50 [12]: 10; Ratio EC50 [13]: 8
2 | Cc1cc(C#N)cc(C)c1Oc1nc(NC2CCN(CC(=O)N3CCOCC3)CC2)nc2sccc12 | 82 nM | > 36300 nM | 36300 nM | 442 | < 1 | 3670 nM | 1620 nM | 3640 nM | 7180 nM | 334 nM | 13800 nM | 44.8 | 19.8 | 44.3 | 87.5 | 4.1 | 168 | 1490 nM | 27.6 µg/mL (≈ 54.5 µM) | 34.2 µg/mL (≈ 67.5 µM) | solubility [23]: 228 µg/mL (≈ 450 µM)
3 | Cc1cc(C#N)cc(C)c1Oc1nc(NC2CCN(CCN3CCOCC3)CC2)nc2ccsc12 | 87 nM | > 36800 nM | 36800 nM | 423 | < 1 | 8700 nM | 1040 nM | 8350 nM | 9390 nM | 437 nM | 7140 nM | 99.9 | 11.9 | 95.8 | 107.9 | 5 | 81.9 | 2530 nM | 15.6 µg/mL (≈ 31.7 µM) | 24.4 µg/mL (≈ 49.5 µM) | solubility [23]: 207 µg/mL (≈ 420 µM)
4 | Cc1cc(C#N)cc(C)c1Oc1nc(NC2CCN(CCN3CCOCC3)CC2)nc2sccc12 | 65 nM | > 37900 nM | 37900 nM | 579 | < 1 | 14700 nM | 610 nM | 6900 nM | 45200 nM | 586 nM | 18700 nM | 224.5 | 9.3 | 105.5 | 690.6 | 9 | 285.5 | 2360 nM | 19.7 µg/mL (≈ 40 µM) | 29.3 µg/mL (≈ 59.5 µM) | solubility [23]: 243 µg/mL (≈ 493 µM)
5 | Cc1cc(C#N)cc(C)c1Oc1nc(NC2CCN(CC(=O)N3CCOCC3)CC2)nc2c1SCC2 | 58 nM | > 38600 nM | 38600 nM | 663 | < 1 | 6120 nM | 1280 nM | 5450 nM | 5210 nM | 1310 nM | > 38600 nM | 105 | 21.9 | 93.5 | 89.4 | 22.6 | >662.9 | 3370 nM | 29.1 µg/mL (≈ 57.2 µM) | 35.2 µg/mL (≈ 69.2 µM) | Ratio EC50 [24]: <=87; Ratio EC50 [25]: 2.8; solubility [23]: 248 µg/mL (≈ 488 µM)
6 | Cc1cc(C#N)cc(C)c1Oc1nc(Nc2ccc(C#N)cc2)nc(N)c1Br [ETRAVIRINE] | – | 38 nM | > 4590 nM | > 1640 | > 122 | 5 nM | 3 nM | 14 nM | 14 nM | 7 nM | 18 nM | 1.9 | 1 | 4.9 | 4.9 | 2.6 | 6.3 | 59 nM | – | – | –
